Test results from PubChem BioAssay AID248 (DTP/NCI, 2004).
Several values for one entry are separate records, joined by “and”; a condition that tells them apart may be missing. Equal values may be shown once. Toxic doses and inconclusive results are not listed. Cut-off read from the data, not from the text of the source: active = T/C of 150% or more; inactive = T/C below 125%.

System: L1210 leukemia ip in BDF1 mice, survival T/C
Experiment: NCI In Vivo Anticancer Drug Screen. Data for tumor model L1210 Leukemia (intraperitoneal) in B6D2F1 (BDF1) mice
Conditions: endpoint: mean survival time, higher = longer survival
Outline: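 Read-out is survival time, reported as the treated-group measurement over the vehicle-control measurement.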

[1] = dose: 100.0 mg/kg/injection, schedule: Q01DX009 (ip), vehicle: Klucel (hydroxypropylcellulose) (HPC)
[2] = dose: 100.0 mg/kg/injection, schedule: Q04DX003 (ip), vehicle: Klucel (hydroxypropylcellulose) (HPC)
[3] = dose: 200.0 mg/kg/injection, schedule: Q01DX009 (ip), vehicle: Klucel (hydroxypropylcellulose) (HPC)
[4] = dose: 200.0 mg/kg/injection, schedule: Q04DX003 (ip), vehicle: Klucel (hydroxypropylcellulose) (HPC)
[5] = dose: 400.0 mg/kg/injection, schedule: Q01DX009 (ip), vehicle: Klucel (hydroxypropylcellulose) (HPC)
[6] = dose: 400.0 mg/kg/injection, schedule: Q04DX003 (ip), vehicle: Klucel (hydroxypropylcellulose) (HPC)
[7] = dose: 75.0 mg/kg/injection, schedule: Q01DX001 (ip), vehicle: saline
[8] = dose: 100.0 mg/kg/injection, schedule: Q01DX009 (ip), vehicle: saline
[9] = dose: 200.0 mg/kg/injection, schedule: Q01DX009 (ip), vehicle: saline
[10] = dose: 400.0 mg/kg/injection, schedule: Q01DX009 (ip), vehicle: saline
[11] = dose: 50.0 mg/kg/injection, schedule: Q04DX003 (ip), vehicle: Klucel (hydroxypropylcellulose) (HPC)
[12] = dose: 100.0 mg/kg/injection, schedule: Q04DX003 (ip), vehicle: saline
[13] = dose: 200.0 mg/kg/injection, schedule: Q04DX003 (ip), vehicle: saline
[14] = dose: 100.0 mg/kg/injection, schedule: Q01DX009 (ip), vehicle: saline with Tween-80
[15] = dose: 100.0 mg/kg/injection, schedule: Q04DX003 (ip), vehicle: saline with Tween-80
[16] = dose: 200.0 mg/kg/injection, schedule: Q01DX009 (ip), vehicle: saline with Tween-80
[17] = dose: 200.0 mg/kg/injection, schedule: Q04DX003 (ip), vehicle: saline with Tween-80
[18] = dose: 400.0 mg/kg/injection, schedule: Q01DX009 (ip), vehicle: saline with Tween-80
[19] = dose: 400.0 mg/kg/injection, schedule: Q04DX003 (ip), vehicle: saline with Tween-80
[20] = dose: 50.0 mg/kg/injection, schedule: Q01DX009 (ip), vehicle: saline
[21] = dose: 400.0 mg/kg/injection, schedule: Q04DX003 (ip), vehicle: saline

Measured: T/C

Cc1ccccc1NC(=O)NCCc1ccccc1
inactive: [1] 93 % of control | [2] 88 % of control | [3] 91 % of control | [4] 93 % of control | [5] 98 % of control | [6] 90 % of control

O=C1c2ccccc2S(=O)N1OCc1ccccc1 (centres undefined)
inactive: dose: 100.0 mg/kg/injection, schedule: Q04DX002 (ip), vehicle: Klucel (hydroxypropylcellulose) (HPC) 88 % of control | dose: 200.0 mg/kg/injection, schedule: Q04DX002 (ip), vehicle: Klucel (hydroxypropylcellulose) (HPC) 100 % of control

CCCC(C)C1(CC)C(=O)NC(=O)NC1=O (centres undefined)
inactive: dose: 20.0 mg/kg/injection, schedule: Q01DX001 (ip), vehicle: saline 97 % of control | dose: 20.0 mg/kg/injection, schedule: Q04DX003 (ip), vehicle: saline 93 % of control | dose: 40.0 mg/kg/injection, schedule: Q01DX001 (ip), vehicle: saline 103 % of control | dose: 40.0 mg/kg/injection, schedule: Q04DX003 (ip), vehicle: saline 98 % of control | [7] 107 % of control | dose: 80.0 mg/kg/injection, schedule: Q01DX001 (ip), vehicle: saline 108 % of control | dose: 80.0 mg/kg/injection, schedule: Q04DX003 (ip), vehicle: saline 97 % of control | dose: 160.0 mg/kg/injection, schedule: Q01DX001 (ip), vehicle: saline 108 % of control

C=CCSc1nc(N)nc2c1ncn2C1CC(O)C(CO)O1 (centres undefined)
inactive: dose: 100.0 mg/kg/injection, schedule: Q01DX005 (ip), vehicle: saline 102 % of control | [8] 102 % of control | dose: 200.0 mg/kg/injection, schedule: Q01DX005 (ip), vehicle: saline 104 % of control | [9] 109 % of control | [10] 109 % of control

CCOC(=O)c1c(Cl)c(Cl)c(C(=O)OCC)c(Cl)c1Cl
inactive: dose: 100.0 mg/kg/injection, schedule: Q01DX009 (ip), vehicle: saline sonified 101 % of control | [2] 101 % of control | dose: 200.0 mg/kg/injection, schedule: Q01DX009 (ip), vehicle: saline sonified 97 % of control | [4] 95 % of control | dose: 400.0 mg/kg/injection, schedule: Q01DX009 (ip), vehicle: saline sonified 95 % of control | [6] 92 % of control

O=[N+]([O-])c1ccc(CC(O)c2ccccc2)cc1 (centres undefined)
inactive: [11] 105 % of control | [1] 111 % of control | [2] 102 % of control | [3] 107 % of control | [4] 105 % of control | [5] 103 % of control | [6] 105 % of control

CN(C)C(=Nc1ccccc1)N(C)N
inactive: dose: 37.5 mg/kg/injection, schedule: Q04DX003 (ip), vehicle: saline 102 % of control | dose: 75.0 mg/kg/injection, schedule: Q04DX003 (ip), vehicle: saline 101 % of control | dose: 150.0 mg/kg/injection, schedule: Q04DX003 (ip), vehicle: saline 102 % of control

O=C(Nc1cccc(C(F)(F)F)c1)Nc1c(Oc2ccc(Cl)c(Cl)c2)ccc(Cl)c1S(=O)(=O)O
inactive: [12] 103 % of control | [13] 94 % of control

COC1OC(COC(C)=O)C(OC(C)=O)C2C1N2C(N)=S (centres undefined)
inactive: dose: 100.0 mg/kg/injection, schedule: Q04DX002 (ip), vehicle: saline 110 % of control | dose: 400.0 mg/kg/injection, schedule: Q04DX002 (ip), vehicle: saline 113 % of control

Clc1nc2nc(C3CC3)[nH]c2nc1Cl
inactive: [14] 104 % of control | [15] 97 % of control | [16] 90 % of control | [17] 95 % of control | [18] 111 % of control | [19] 101 % of control

O=[N+]([O-])c1ccc(O)c(/C=N/N2CCCCC2)c1
inactive: dose: 100.0 mg/kg/injection, schedule: Q04DX002 (ip), vehicle: saline with Tween-80 94 % of control | dose: 200.0 mg/kg/injection, schedule: Q04DX002 (ip), vehicle: saline with Tween-80 97 % of control | dose: 400.0 mg/kg/injection, schedule: Q04DX002 (ip), vehicle: saline with Tween-80 108 % of control

[N-]=[N+]=Nc1ccc2[nH]c3ccccc3c(=O)c2c1
inactive: [20] 90 % of control | [8] 93 % of control | dose: 100.0 mg/kg/injection, schedule: Q04DX003 (ip), vehicle: acetone 92 % of control | [9] 95 % of control | dose: 200.0 mg/kg/injection, schedule: Q04DX003 (ip), vehicle: acetone 97 % of control | dose: 400.0 mg/kg/injection, schedule: Q04DX003 (ip), vehicle: acetone 97 % of control

N=C(N)CNC(=O)c1ccccc1C(=O)O
inactive: dose: 19.0 mg/kg/injection, schedule: Q01DX009 (ip), vehicle: saline 100 % of control | dose: 38.0 mg/kg/injection, schedule: Q01DX009 (ip), vehicle: saline 92 % of control | [7] 103 % of control | dose: 75.0 mg/kg/injection, schedule: Q01DX009 (ip), vehicle: saline 96 % of control | dose: 150.0 mg/kg/injection, schedule: Q01DX001 (ip), vehicle: saline 107 % of control | dose: 150.0 mg/kg/injection, schedule: Q01DX009 (ip), vehicle: saline 100 % of control | dose: 300.0 mg/kg/injection, schedule: Q01DX001 (ip), vehicle: saline 92 % of control

CC1CC(C)S(=O)(=O)C1 (centres undefined)
inactive: dose: 12.5 mg/kg/injection, schedule: Q01DX009 (ip), vehicle: saline 94 % of control | dose: 12.5 mg/kg/injection, schedule: Q04DX003 (ip), vehicle: saline 97 % of control | dose: 25.0 mg/kg/injection, schedule: Q01DX001 (ip), vehicle: saline 104 % of control | dose: 25.0 mg/kg/injection, schedule: Q01DX009 (ip), vehicle: saline 108 % of control | dose: 25.0 mg/kg/injection, schedule: Q04DX003 (ip), vehicle: saline 95 % of control | dose: 50.0 mg/kg/injection, schedule: Q01DX001 (ip), vehicle: saline 104 % of control | [20] 91 % of control | dose: 50.0 mg/kg/injection, schedule: Q04DX003 (ip), vehicle: saline 93 % of control

NC(N)=NC(N)=NCCCCc1ccccc1
inactive: dose: 25.0 mg/kg/injection, schedule: Q04DX003 (ip), vehicle: Klucel (hydroxypropylcellulose) (HPC) 95 % of control | [11] 109 % of control | [2] 101 % of control

OC1OC(COC(c2ccccc2)(c2ccccc2)c2ccccc2)C(O)C(O)C1O (centres undefined)
inactive: [20] 95 % of control | [14] 100 % of control and 102 % of control | [8] 98 % of control | [15] 102 % of control | [12] 102 % of control | dose: 100.0 mg/kg/injection, schedule: Q04DX003 (ip), vehicle: water 105 % of control | [16] 95 % of control and 96 % of control | [9] 95 % of control | [17] 96 % of control | [13] 93 % of control | dose: 200.0 mg/kg/injection, schedule: Q04DX003 (ip), vehicle: water 97 % of control | [18] 104 % of control | [19] 94 % of control | dose: 400.0 mg/kg/injection, schedule: Q04DX003 (ip), vehicle: water 96 % of control

N=C(N)CC(=O)CC(=N)N
inactive: [20] 91 % of control | [8] 91 % of control | [9] 98 % of control

O=S(=O)(CC(Br)c1ccccc1)c1ccccc1 (centres undefined)
inactive: [8] 92 % of control | [12] 101 % of control | [9] 95 % of control | [13] 104 % of control | [10] 94 % of control | [21] 97 % of control

Cc1ccc(S(=O)(=O)c2ccccc2)cc1
inactive: [12] 103 % of control | [13] 91 % of control | [21] 95 % of control

O=C(NCCCOc1ccc([N+](=O)[O-])cc1Cl)Nc1cccc(S(=O)(=O)F)c1
inactive: [1] 92 % of control | [2] 106 % of control | [3] 98 % of control | [4] 103 % of control | [5] 103 % of control | [6] 95 % of control

CC1(C)CCCC(OC(=O)c2ccc([N+](=O)[O-])cc2)C1 (centres undefined)
inactive: dose: 100.0 mg/kg/injection, schedule: Q01DX001 (ip), vehicle: carboxymethylcellulose (CMC) 93 % of control | dose: 200.0 mg/kg/injection, schedule: Q01DX001 (ip), vehicle: carboxymethylcellulose (CMC) 96 % of control | dose: 400.0 mg/kg/injection, schedule: Q01DX001 (ip), vehicle: carboxymethylcellulose (CMC) 102 % of control
